The results in this text go back to ChEMBL document CHEMBL5634127, “Synthesis of novel rhodamine type Anthrone Spiro-lactam (ASL) analogues and evaluation of antiviral activity against dengue and chikungunya viruses” (Eur J Med Chem, 2023).

Each structure is given as a SMILES string. Calls of active or inactive are those of the source. The rule behind the calls is not given here.

Data set [1] is described as follows: Cytotoxicity against green monkey Vero cells assessed as cell viability at 0.78 to 100 uM incubated for 5 days by MTT assay relative to control. In kind it is toxicity, cell-based. As to conditions: chlorocebus sabaeus, dose 0.78-100 µM, time 5 day, read-out: Activity.
Data set [2] relates to Chikungunya virus. Description: Antiviral activity against Chikungunya virus infected in green monkey Vero cells assessed as reduction in viral growth at 50 uM preincubated for 1 hr with compound followed by virus infection and measured after 24 hrs by focus forming unit assay. As to conditions: time 25.0 hrs. In kind it is functional, organism-based.
Data set [3] is described as follows: Cytotoxicity against green monkey Vero cells incubated for 5 days by MTT assay. It is filed as toxicity, cell-based. The following applies: chlorocebus sabaeus, time 5 day. (In general: Tetrazolium dyes change colour on reduction, which living cells bring about.)
Data set [4] deals with Chikungunya virus. The experiment in a line: Antiviral activity against Chikungunya virus infected in green monkey Vero cells assessed as reduction in viral growth at 50 uM incubated for 1 hr along with virus infection and measured after 24 hrs by focus forming unit assay. As to conditions: time 25.0 hrs. It is filed as functional, organism-based.
Data set [5] relates to Dengue virus. The experiment in a line: Antiviral activity against Dengue virus infected in green monkey Vero cells assessed as reduction in colony forming unit incubated for 1 hr after the virus infection and measured after 120 hrs by focus forming unit assay. It is filed as functional, organism-based. As to conditions: time 121.0 hrs.
Data set [6] has as its system Dengue virus. Description: Antiviral activity against Dengue virus infected in green monkey Vero cells assessed as reduction in colony forming unit at 50 uM incubated for 1 hr after the virus infection and measured after 120 hrs by focus forming unit assay. It is filed as functional. The following applies: time 121 hrs.
Data set [7] deals with Dengue virus. Description: Antiviral activity against Dengue virus infected in green monkey Vero cells assessed as reduction in viral titer at 50 uM incubated for 1 hr after the virus infection and measured after 120 hrs by focus forming unit assay (reference value: 6.134 log10FFU/ml). The following applies: time 121 hrs. In kind it is functional.
The subject of data set [8] is Chikungunya virus. Description: Antiviral activity against Chikungunya virus infected in green monkey Vero cells assessed as reduction in viral growth at 3.125 uM preincubated for 1 hr with compound followed by virus infection and measured after 24 hrs by focus forming unit assay. It is filed as functional, organism-based. As to conditions: time 25.0 hrs.
The subject of data set [9] is Chikungunya virus. The experiment in a line: Antiviral activity against Chikungunya virus infected in green monkey Vero cells assessed as reduction in viral growth at 3.125 uM incubated for 1 hr along with virus infection and measured after 24 hrs by focus forming unit assay. It is filed as functional, organism-based. As to conditions: time 25.0 hrs.
Data set [10] deals with Dengue virus. Description: Antiviral activity against Dengue virus infected in green monkey Vero cells assessed as reduction in viral titer at 100 uM incubated for 1 hr after the virus infection and measured after 120 hrs by focus forming unit assay (reference value: 6.134 log10FFU/ml). In kind it is functional. As to conditions: time 121 hrs.
The subject of data set [11] is Chikungunya virus. The experiment in a line: Antiviral activity against Chikungunya virus infected in green monkey Vero cells assessed as reduction in viral growth at 100 uM preincubated for 1 hr with compound followed by virus infection and measured after 24 hrs by focus forming unit assay. It is filed as functional, organism-based. As to conditions: time 25.0 hrs.

The subject of data set [12] is Chikungunya virus. Description: Antiviral activity against Chikungunya virus infected in green monkey Vero cells assessed as reduction in viral growth at 100 uM incubated for 1 hr along with virus infection and measured after 24 hrs by focus forming unit assay. The following applies: time 25.0 hrs. It is filed as functional, organism-based.
Data set [13] has as its system Dengue virus. Description: Antiviral activity against Dengue virus infected in green monkey Vero cells assessed as reduction in colony forming unit at 100 uM incubated for 1 hr after the virus infection and measured after 120 hrs by focus forming unit assay. It is filed as functional. As to conditions: time 121 hrs.
The test system of data set [14] is Chikungunya virus. The experiment in a line: Antiviral activity against Chikungunya virus infected in green monkey Vero cells assessed as reduction in viral growth at 6.25 uM preincubated for 1 hr with compound followed by virus infection and measured after 24 hrs by focus forming unit assay. As to conditions: time 25.0 hrs. In kind it is functional, organism-based.

Data set [15] deals with Chikungunya virus. Description: Antiviral activity against Chikungunya virus infected in green monkey Vero cells assessed as reduction in viral growth at 6.25 uM incubated for 1 hr along with virus infection and measured after 24 hrs by focus forming unit assay. It is filed as functional, organism-based. As to conditions: time 25.0 hrs.
Data set [16] deals with Chikungunya virus. The experiment in a line: Antiviral activity against Chikungunya virus infected in green monkey Vero cells assessed as reduction in viral growth incubated for 1 hr after the virus infection and measured after 24 hrs by focus forming unit assay. In kind it is functional, organism-based. As to conditions: time 25.0 hrs.
Data set [17] has as its system Chikungunya virus. The experiment in a line: Antiviral activity against Chikungunya virus infected in green monkey Vero cells assessed as reduction in colony forming unit at 50 uM incubated for 1 hr after the virus infection and measured after 24 hrs by focus forming unit assay. As to conditions: time 25 hrs. In kind it is functional.
Data set [18] concerns Dengue virus. Description: Antiviral activity against Dengue virus infected in green monkey Vero cells assessed as reduction in viral titer at 25 uM incubated for 1 hr after the virus infection and measured after 120 hrs by focus forming unit assay (reference value: 6.134 log10FFU/ml). It is filed as functional. The following applies: time 121 hrs.
Data set [19] concerns Dengue virus. The experiment in a line: Antiviral activity against Dengue virus infected in green monkey Vero cells assessed as reduction in colony forming unit incubated for 1 hr along with virus infection and measured after 120 hrs by focus forming unit assay. The following applies: time 121.0 hrs. It is filed as functional, organism-based.
Data set [20] has as its system Dengue virus. Description: Antiviral activity against Dengue virus infected in green monkey Vero cells assessed as reduction in colony forming unit at 12.5 uM incubated for 1 hr along with virus infection and measured after 120 hrs by focus forming unit assay (reference value: 5.187 log10FFU/ml). It is filed as functional. The following applies: time 121 hrs.
In data set [21] the test system is Chikungunya virus. Description: Antiviral activity against Chikungunya virus infected in green monkey Vero cells assessed as reduction in viral growth at 12.5 uM incubated for 1 hr along with virus infection and measured after 24 hrs by focus forming unit assay. In kind it is functional, organism-based. The following applies: time 25.0 hrs.
Data set [22] deals with Chikungunya virus. The experiment in a line: Antiviral activity against Chikungunya virus infected in green monkey Vero cells assessed as reduction in viral growth at 12.5 uM preincubated for 1 hr with compound followed by virus infection and measured after 24 hrs by focus forming unit assay. In kind it is functional, organism-based. As to conditions: time 25.0 hrs.

By CC50 is commonly meant the concentration that lowers cell viability or growth by half. `COc1cc2c(cc1OC)C1(c3cc(OC)c(OC)cc3C2=O)c2cc(OC)c(OC)cc2C(=O)N1NC(=O)c1ccc([N+](=O)[O-])cc1`: in data set [1], the viability at 120 h, up to 100 µM was at least 90%. Also, the result in the data set on Chikungunya virus [2] and with Chikungunya virus [4] was inactive. In [3], this molecule came in with a half-maximal cytotoxic concentration (CC50) at 120 h of 97.3 µM.

In the case of `COc1cc2c(cc1OC)C1(c3cc(OC)c(OC)cc3C2=O)c2cc(OC)c(OC)cc2C(=O)N1/N=C/c1ccc(N(C)C)cc1`, the viability at 120 h, up to 100 µM in [1] was at least 90%. The outcome in the data set on Chikungunya virus [2] and in the data set with Chikungunya virus [4] was inactive. In [3], the CC50 at 120 h amounted to 122 µM.

For `COc1cc2c(cc1OC)C1(c3cc(OC)c(OC)cc3C2=O)c2cc(OC)c(OC)cc2C(=O)N1/N=C/c1ccc(Br)cc1`, in data set [1], the viability at 120 h, up to 100 µM is at least 90%. For the same molecule, the result in the data set on Chikungunya virus [2] and in the data set with Chikungunya virus [4] was inactive. The Activity entry in the data set on Dengue virus [5] is “Dose-Dependent Effect”; with Dengue virus [6], “>=1 log10CFU”. The same molecule had a CC50 at 120 h in data set [3] of 181 µM. In addition, the Remaining viral titer in the data set on Dengue virus [7] is reported as 5.431 log10FFU/ml.

In the case of `COc1cc2c(cc1OC)C1(c3cc(OC)c(OC)cc3C2=O)c2cc(OC)c(OC)cc2C(=O)N1/N=C/c1cccs1`, the viability at 120 h, up to 100 µM in data set [1] is at least 90%. Besides, the outcome in the data set on Chikungunya virus [8] and in the data set on Chikungunya virus [9] was inactive. Besides, in [3], the CC50 at 120 h was 52.7 µM.

With `COc1cc2c(cc1OC)C1(c3cc(OC)c(OC)cc3C2=O)c2cc(OC)c(OC)cc2C(=O)N1/N=C/c1cc(OC)c(O)c(OC)c1`, in data set [1], the viability at 120 h, up to 100 µM was at least 90%. Moreover, the Activity in the data set with Dengue virus [10] is 3.994 log10FFU/ml; with Dengue virus [5] it was “Dose-Dependent Effect”; in the data set with Dengue virus [13] it was “>=1 log10CFU”. Also, the result in the data set on Chikungunya virus [11] and in the data set with Chikungunya virus [12] was inactive. Besides, the cytotoxic concentration (CC50) at 120 h in data set [3] was over 100 µM. Also, in the data set with Dengue virus [7], the Remaining viral titer stood at 5.052 log10FFU/ml.

On to `COc1cc2c(cc1OC)C1(c3cc(OC)c(OC)cc3C2=O)c2cc(OC)c(OC)cc2C(=O)N1/N=C/c1ccc2ccccc2n1`, for which the viability at 120 h, up to 100 µM in data set [1] was at least 90%. The result with Chikungunya virus [14] and in the data set on Chikungunya virus [15] was inactive. In addition, in data set [3], it took 100 µM to reach half-maximal cytotoxicity (CC50 at 120 h).

As for `COc1cc2c(cc1OC)C1(c3cc(OC)c(OC)cc3C2=O)c2cc(OC)c(OC)cc2C(=O)N1NC(=O)c1cc(C(F)(F)F)cc(C(F)(F)F)c1`, the viability at 120 h, up to 100 µM in [1] was at least 90%. Besides, the outcome in the data set on Chikungunya virus [2] and in the data set on Chikungunya virus [4] was inactive. Further, the figures for the Activity entry in the data set on Chikungunya virus [16] and in the data set on Chikungunya virus [17] were “Dose-Dependent Effect” and “>=1 log10CFU”, respectively. In addition, the CC50 at 120 h in [3] stood at 98.9 µM.

As to `COc1cc2c(cc1OC)C1(c3cc(OC)c(OC)cc3C2=O)c2cc(OC)c(OC)cc2C(=O)N1/N=C/c1ccccc1`, the viability at 120 h, up to 100 µM in data set [1] is at least 90%. For the same molecule, the results for the Activity with Dengue virus [10], with Dengue virus [5] and with Dengue virus [13] were 5.03 log10FFU/ml, “Dose-Dependent Effect” and “>=1 log10CFU”, respectively. For the same molecule, the result in the data set with Chikungunya virus [11] and in the data set with Chikungunya virus [12] was inactive. Further, in data set [3], the half-maximal cytotoxic concentration (CC50) at 120 h was over 100 µM.

As to `COc1cc(/C=N/N2C(=O)c3cc(OC)c(OC)cc3C23c2cc(OC)c(OC)cc2C(=O)c2cc(OC)c(OC)cc23)ccc1O`, in data set [1], the viability at 120 h, up to 100 µM is at least 90%. Also, the outcome in the data set with Chikungunya virus [2] and in the data set with Chikungunya virus [4] was inactive. In addition, the Activity entry is “Dose-Dependent Effect” in the data set with Dengue virus [5] and “>=1 log10CFU” in the data set with Dengue virus [6]. In data set [3], the 50% cytotoxic concentration (CC50) at 120 h came out at 113 µM. For the same molecule, in the data set with Dengue virus [7], the Remaining viral titer was 5.23 log10FFU/ml.

Consider `COc1cc2c(cc1OC)C1(c3cc(OC)c(OC)cc3C2=O)c2cc(OC)c(OC)cc2C(=O)N1/N=C/c1cc(OC)c(OC)c(OC)c1`, for which the viability at 120 h, up to 100 µM in data set [1] was at least 90%. Further, the Activity in the data set on Dengue virus [18] is 5.064 log10FFU/ml; in the data set with Dengue virus [5], “Dose-Dependent Effect”; in the data set with Chikungunya virus [16] it was “Dose-Dependent Effect”; in the data set on Dengue virus [6], “>=1 log10CFU”; in the data set with Chikungunya virus [17], “>=1 log10CFU”. The result with Chikungunya virus [2] and in the data set on Chikungunya virus [4] was inactive. The molecule also displayed a CC50 at 120 h in [3] of 99.8 µM. In addition, the Remaining viral titer with Dengue virus [7] is 4.098 log10FFU/ml.

Take `COc1cc2c(cc1OC)C1(c3cc(OC)c(OC)cc3C2=O)c2cc(OC)c(OC)cc2C(=O)N1/N=C/c1c2ccccc2cc2ccccc12`: the viability at 120 h, up to 100 µM in data set [1] is at least 90%. For the same molecule, the result with Chikungunya virus [2] and with Chikungunya virus [4] was inactive. This molecule came in with a cytotoxic concentration (CC50) at 120 h in data set [3] of 352 µM.

Regarding `COc1cc2c(cc1OC)C1(c3cc(OC)c(OC)cc3C2=O)c2cc(OC)c(OC)cc2C(=O)N1/N=C/c1ccccc1O`, the viability at 120 h, up to 100 µM in [1] was at least 90%. Further, the Activity result was “Dose-Dependent Effect” in the data set on Dengue virus [19] and 4.101 log10FFU/ml in the data set with Dengue virus [20]. Also, half-maximal cytotoxicity in [3] (CC50 at 120 h) was put at 173 µM. Also, the result in the data set with Chikungunya virus [21] and with Chikungunya virus [22] was inactive.
